Experimental data reported in ChEMBL document CHEMBL4311943, “3-[(1S,2S,3R)-2,3-Difluoro-1-hydroxy-7-methylsulfonylindan-4-yl]oxy-5-fluorobenzonitrile (PT2977), a Hypoxia-Inducible Factor 2α (HIF-2α) Inhibitor for the Treatment of Clear Cell Renal Cell Carcinoma” (J Med Chem, 2019).
Activity calls are given as the source filed them. No cut-off for these calls is given here.

Assays:
[1] = target: Sphingosine 1-phosphate receptor 3 (Homo sapiens) (UniProt Q99500); experiment: Activity at human S1P3 receptor at 10 uM
[2] = Cmin in patient with advanced solid tumor at 120 mg, po administered once daily measured on day 15 measured after 24 hrs; assay type: ADME, organism-based; settings: human, in vivo, read-out: Cmin
[3] = Volume of distribution at steady state in Beagle dog at 1 mg/kg, iv by UPLC-MS analysis; assay type: ADME, organism-based, Canis lupus familiaris; settings: in vivo, read-out: Vdss
[4] = target: Cannabinoid receptor 1 (Homo sapiens) (UniProt P21554); experiment: Activity at human CB1 receptor at 10 uM
[5] = target: Prostaglandin E2 receptor EP3 subtype (Homo sapiens) (UniProt P43115); experiment: Activity at human Prostanoid EP3 receptor at 10 uM
[6] = target: Phosphorylase b kinase gamma catalytic chain, liver/testis isoform (Homo sapiens) (UniProt P15735); experiment: Activity at human PhKgamma2 at 10 uM
[7] = target: Neuromedin-K receptor (Homo sapiens) (UniProt P29371); experiment: Activity at human NK3 receptor at 10 uM
[8] = target: Beta-1 adrenergic receptor (Homo sapiens) (UniProt P08588); experiment: Activity at human beta1 receptor at 10 uM
[9] = target: Beta-2 adrenergic receptor (Homo sapiens) (UniProt P07550); experiment: Activity at human beta2 receptor at 10 uM
Homo sapiens = species: Homo sapiens; experiment: Activity at human PKA at 10 uM
[10] = Clearance in Beagle dog at 1 mg/kg, iv by UPLC-MS analysis; assay type: ADME, organism-based, Canis lupus familiaris; settings: in vivo
[11] = target: Calcium/calmodulin-dependent protein kinase type II subunit gamma (Homo sapiens) (UniProt Q13555); experiment: Activity at human CAMK2G at 10 uM
[12] = target: Tyrosine-protein kinase Lyn (Homo sapiens) (UniProt P07948); experiment: Activity at human Lyn at 10 uM
[13] = Cmax in patient with advanced solid tumor at 20 mg, po administered once daily measured on day 15; assay type: ADME, organism-based; set-up: dose 20 mg, route oral; settings: human, in vivo
[14] = target: 5-hydroxytryptamine receptor 1A (Homo sapiens) (UniProt P08908); experiment: Activity at human 5-HT1A receptor at 10 uM
[15] = target: 5-hydroxytryptamine receptor 2B (Homo sapiens) (UniProt P41595); experiment: Activity at human 5-HT2B receptor at 10 uM
[16] = target: Protein kinase C beta type (Homo sapiens) (UniProt P05771); experiment: Activity at human PKCbeta2 at 10 uM
[17] = target: Serine/threonine-protein kinase D1 (Homo sapiens) (UniProt Q15139); experiment: Activity at human PKCmu at 10 uM
Cytochrome P450 2D6 = Cytochrome P450 2D6 (Homo sapiens, UniProt P10635); experiment: Inhibition of CYP2D6 in human liver microsomes up to 50 uM using dextromethorphan as substrate measured after 10 mins in presence of NADPH by LC-MS/MS analysis; assay type: ADME
[18] = Drug level in plasma of SCID Beige mouse xenografted with human 786-O cells at 0.3 mg/kg, po administered twice daily via gavage for 3 days measured 12 hrs post-last dose; assay type: ADME, organism-based
[19] = target: T1, UDP-glucuronosyltransferase 2B17 (Homo sapiens, UniProt O75795); experiment: Substrate activity at recombinant human UGT2B17 expressed in baculovirus infected insect cell membranes assessed as enzyme-mediated glucuronidation by measuring Vmax per mg protein at 50 uM preincubated for 5 mins followed by UDPGA addition and measured after 60 mins by LC-MS/MS analysis; assay type: ADME; settings: 1 h
T1 sequence (O75795 whole entry): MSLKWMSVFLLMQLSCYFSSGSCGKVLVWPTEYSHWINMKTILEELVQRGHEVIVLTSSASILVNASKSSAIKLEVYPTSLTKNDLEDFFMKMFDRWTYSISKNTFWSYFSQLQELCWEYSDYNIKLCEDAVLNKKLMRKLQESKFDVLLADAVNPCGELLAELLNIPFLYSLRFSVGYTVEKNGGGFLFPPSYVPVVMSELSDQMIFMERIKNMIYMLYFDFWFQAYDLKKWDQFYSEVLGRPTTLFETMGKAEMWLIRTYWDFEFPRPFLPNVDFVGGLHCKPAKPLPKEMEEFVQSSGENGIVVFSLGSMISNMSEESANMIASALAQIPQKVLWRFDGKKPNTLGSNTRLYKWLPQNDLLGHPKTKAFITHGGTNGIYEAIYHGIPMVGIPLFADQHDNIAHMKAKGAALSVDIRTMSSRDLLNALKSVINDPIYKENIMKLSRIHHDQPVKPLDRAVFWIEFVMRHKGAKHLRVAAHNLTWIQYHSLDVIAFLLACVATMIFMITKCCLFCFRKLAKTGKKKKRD

[20] = target: D(2) dopamine receptor (Homo sapiens) (UniProt P14416); experiment: Activity at human D2L receptor at 10 uM
[21] = target: Ribosomal protein S6 kinase beta-1 (Homo sapiens) (UniProt P23443); experiment: Activity at human p70S6K at 10 uM
[22] = target: Somatostatin receptor type 4 (Homo sapiens) (UniProt P31391); experiment: Activity at human SST4 receptor at 10 uM
[23] = Half life in patient with advanced solid tumor at 160 mg, po administered once daily measured on day 15; assay type: ADME, organism-based; settings: human, in vivo
Cytochrome P450 2C8 = Cytochrome P450 2C8 (Homo sapiens, UniProt P10632); experiment: Inhibition of CYP2C8 in human liver microsomes up to 50 uM using amodiaquine as substrate measured after 10 mins in presence of NADPH by LC-MS/MS analysis; assay type: ADME
[24] = target: Protein kinase C beta type (Homo sapiens) (UniProt P05771); experiment: Activity at human PKCbeta1 at 10 uM
[25] = Volume of distribution at steady state in Sprague-Dawley rat at 1 mg/kg, iv by UPLC-MS analysis; assay type: ADME, organism-based; settings: in vivo, read-out: Vdss
[26] = target: Hydroxycarboxylic acid receptor 2 (Homo sapiens) (UniProt Q8TDS4); experiment: Activity at human GPR109A receptor at 10 uM
[27] = target: P2Y purinoceptor 1 (Homo sapiens) (UniProt P47900); experiment: Activity at human P2Y1 receptor at 10 uM
[28] = Dose normalized AUClast in Beagle dog at 5 mg/kg, po administered via gavage by UPLC-MS analysis; assay type: ADME, organism-based, Canis lupus familiaris; settings: in vivo
[29] = target: Mitogen-activated protein kinase 1 (Homo sapiens) (UniProt P28482); experiment: Activity at human MAPK2 at 10 uM
[30] = target: Cysteinyl leukotriene receptor 1 (Homo sapiens) (UniProt Q9Y271); experiment: Activity at human CysLT1 receptor at 10 uM
[31] = target: Kappa-type opioid receptor (Homo sapiens) (UniProt P41145); experiment: Activity at human kappa opioid receptor at 10 uM
[32] = target: Alpha-1D adrenergic receptor (Homo sapiens) (UniProt P25100); experiment: Activity at human alpha1D receptor at 10 uM
[33] = Volume of distribution at steady state in monkey at 1 mg/kg, iv by UPLC-MS analysis; assay type: ADME, organism-based, Macaca mulatta; settings: rhesus monkey, in vivo, read-out: Vdss
[34] = target: Lysophosphatidic acid receptor 3 (Homo sapiens) (UniProt Q9UBY5); experiment: Activity at human LPA3 receptor at 10 uM

Chain of Protein kinase C beta type (Homo sapiens) (P05771 2-671 limits assumed): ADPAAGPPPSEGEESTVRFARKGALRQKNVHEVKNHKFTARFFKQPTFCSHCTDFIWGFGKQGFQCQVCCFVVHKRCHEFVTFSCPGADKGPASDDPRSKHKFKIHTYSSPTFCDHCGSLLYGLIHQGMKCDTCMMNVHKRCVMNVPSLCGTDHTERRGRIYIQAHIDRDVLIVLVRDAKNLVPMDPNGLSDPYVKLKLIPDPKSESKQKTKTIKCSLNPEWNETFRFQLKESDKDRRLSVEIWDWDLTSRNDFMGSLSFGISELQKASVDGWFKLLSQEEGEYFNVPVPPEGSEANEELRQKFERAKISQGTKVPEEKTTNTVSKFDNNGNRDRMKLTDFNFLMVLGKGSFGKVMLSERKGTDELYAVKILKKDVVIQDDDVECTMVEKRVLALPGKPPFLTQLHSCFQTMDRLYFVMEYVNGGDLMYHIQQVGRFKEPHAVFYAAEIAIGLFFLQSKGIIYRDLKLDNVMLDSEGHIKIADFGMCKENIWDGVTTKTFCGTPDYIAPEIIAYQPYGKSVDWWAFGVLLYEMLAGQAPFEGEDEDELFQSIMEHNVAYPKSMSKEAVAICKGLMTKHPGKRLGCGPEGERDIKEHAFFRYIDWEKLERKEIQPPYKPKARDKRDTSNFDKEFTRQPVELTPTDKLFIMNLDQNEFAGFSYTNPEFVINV
Chain of Serine/threonine-protein kinase D1 (Homo sapiens) (Q15139 whole entry): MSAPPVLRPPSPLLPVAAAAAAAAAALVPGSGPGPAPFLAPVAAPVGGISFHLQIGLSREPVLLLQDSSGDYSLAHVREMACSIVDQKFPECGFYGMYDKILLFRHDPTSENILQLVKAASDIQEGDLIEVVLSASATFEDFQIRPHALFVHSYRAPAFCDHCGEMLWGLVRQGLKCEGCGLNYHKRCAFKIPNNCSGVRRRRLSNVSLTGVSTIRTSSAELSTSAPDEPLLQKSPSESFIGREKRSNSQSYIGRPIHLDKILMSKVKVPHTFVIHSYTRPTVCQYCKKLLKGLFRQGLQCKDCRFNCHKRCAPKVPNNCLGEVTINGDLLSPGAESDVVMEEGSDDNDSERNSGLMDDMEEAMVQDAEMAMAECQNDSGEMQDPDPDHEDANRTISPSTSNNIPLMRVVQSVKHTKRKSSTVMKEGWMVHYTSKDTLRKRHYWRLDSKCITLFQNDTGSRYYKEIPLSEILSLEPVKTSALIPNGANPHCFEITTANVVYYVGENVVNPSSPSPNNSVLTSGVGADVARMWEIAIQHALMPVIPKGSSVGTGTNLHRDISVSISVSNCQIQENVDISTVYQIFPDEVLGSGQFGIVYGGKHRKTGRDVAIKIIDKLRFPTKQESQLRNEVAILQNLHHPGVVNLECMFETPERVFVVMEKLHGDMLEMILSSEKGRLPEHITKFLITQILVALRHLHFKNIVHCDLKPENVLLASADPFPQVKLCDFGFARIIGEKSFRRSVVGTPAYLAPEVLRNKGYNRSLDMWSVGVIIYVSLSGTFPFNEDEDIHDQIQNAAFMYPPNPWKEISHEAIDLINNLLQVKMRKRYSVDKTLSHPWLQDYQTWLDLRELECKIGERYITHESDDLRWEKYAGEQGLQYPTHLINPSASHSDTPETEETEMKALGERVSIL
Chain of Cytochrome P450 2C8 (P10632 whole entry): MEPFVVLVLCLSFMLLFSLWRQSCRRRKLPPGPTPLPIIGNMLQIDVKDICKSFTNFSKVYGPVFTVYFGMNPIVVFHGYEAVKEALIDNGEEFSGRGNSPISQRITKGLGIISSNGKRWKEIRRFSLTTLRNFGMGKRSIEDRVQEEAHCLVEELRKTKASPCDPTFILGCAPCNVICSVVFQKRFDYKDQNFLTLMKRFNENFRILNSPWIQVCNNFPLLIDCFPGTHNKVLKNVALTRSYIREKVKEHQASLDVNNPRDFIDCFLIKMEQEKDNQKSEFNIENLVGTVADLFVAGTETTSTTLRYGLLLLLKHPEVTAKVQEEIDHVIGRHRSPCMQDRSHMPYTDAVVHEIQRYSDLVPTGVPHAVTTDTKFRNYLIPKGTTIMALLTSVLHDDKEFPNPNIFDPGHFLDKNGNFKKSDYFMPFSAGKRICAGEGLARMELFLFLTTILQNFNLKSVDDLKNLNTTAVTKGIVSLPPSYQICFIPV
Chain of Tyrosine-protein kinase Lyn (Homo sapiens) (P07948 2-512 limits assumed): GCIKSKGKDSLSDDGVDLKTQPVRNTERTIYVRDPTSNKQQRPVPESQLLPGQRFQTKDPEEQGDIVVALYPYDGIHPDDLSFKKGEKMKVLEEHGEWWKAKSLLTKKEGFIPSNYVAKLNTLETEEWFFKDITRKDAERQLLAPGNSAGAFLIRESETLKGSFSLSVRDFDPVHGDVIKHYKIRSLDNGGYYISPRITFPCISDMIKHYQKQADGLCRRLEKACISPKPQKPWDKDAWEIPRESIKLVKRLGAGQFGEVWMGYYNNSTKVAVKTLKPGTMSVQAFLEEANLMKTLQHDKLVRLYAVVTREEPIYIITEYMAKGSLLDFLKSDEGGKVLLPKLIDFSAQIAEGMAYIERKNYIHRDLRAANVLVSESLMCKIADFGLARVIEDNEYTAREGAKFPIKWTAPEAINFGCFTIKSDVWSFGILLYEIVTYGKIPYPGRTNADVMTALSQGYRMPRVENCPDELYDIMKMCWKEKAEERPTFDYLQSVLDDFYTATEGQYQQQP
Chain of Calcium/calmodulin-dependent protein kinase type II subunit gamma (Homo sapiens) (Q13555 whole entry): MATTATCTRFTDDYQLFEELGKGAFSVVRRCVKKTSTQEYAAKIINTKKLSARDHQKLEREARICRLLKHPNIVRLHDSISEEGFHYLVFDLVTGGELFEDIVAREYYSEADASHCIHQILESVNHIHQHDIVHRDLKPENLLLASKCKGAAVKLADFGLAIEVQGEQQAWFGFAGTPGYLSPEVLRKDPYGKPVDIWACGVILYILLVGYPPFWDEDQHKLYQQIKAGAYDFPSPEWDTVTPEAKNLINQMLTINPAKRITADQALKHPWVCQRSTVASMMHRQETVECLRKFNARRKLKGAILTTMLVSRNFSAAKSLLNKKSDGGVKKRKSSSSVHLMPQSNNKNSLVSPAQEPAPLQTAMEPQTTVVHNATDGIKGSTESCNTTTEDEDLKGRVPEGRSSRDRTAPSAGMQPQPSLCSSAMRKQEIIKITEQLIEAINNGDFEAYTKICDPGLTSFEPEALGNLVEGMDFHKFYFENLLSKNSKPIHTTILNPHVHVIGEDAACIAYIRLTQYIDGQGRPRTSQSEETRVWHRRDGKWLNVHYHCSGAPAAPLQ
Chain of Phosphorylase b kinase gamma catalytic chain, liver/testis isoform (Homo sapiens) (P15735 whole entry, canonical isoform): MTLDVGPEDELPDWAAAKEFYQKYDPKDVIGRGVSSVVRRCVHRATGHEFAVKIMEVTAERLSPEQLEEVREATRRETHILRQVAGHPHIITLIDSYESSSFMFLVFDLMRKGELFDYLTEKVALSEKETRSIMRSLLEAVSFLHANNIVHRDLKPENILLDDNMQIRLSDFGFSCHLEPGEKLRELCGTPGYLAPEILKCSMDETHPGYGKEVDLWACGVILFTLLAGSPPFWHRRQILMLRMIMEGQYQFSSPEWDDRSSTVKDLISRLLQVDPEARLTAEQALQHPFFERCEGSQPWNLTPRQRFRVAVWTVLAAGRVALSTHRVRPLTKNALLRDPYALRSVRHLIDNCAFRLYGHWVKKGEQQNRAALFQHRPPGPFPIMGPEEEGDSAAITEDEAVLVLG
Chain of Mitogen-activated protein kinase 1 (Homo sapiens) (P28482 whole entry): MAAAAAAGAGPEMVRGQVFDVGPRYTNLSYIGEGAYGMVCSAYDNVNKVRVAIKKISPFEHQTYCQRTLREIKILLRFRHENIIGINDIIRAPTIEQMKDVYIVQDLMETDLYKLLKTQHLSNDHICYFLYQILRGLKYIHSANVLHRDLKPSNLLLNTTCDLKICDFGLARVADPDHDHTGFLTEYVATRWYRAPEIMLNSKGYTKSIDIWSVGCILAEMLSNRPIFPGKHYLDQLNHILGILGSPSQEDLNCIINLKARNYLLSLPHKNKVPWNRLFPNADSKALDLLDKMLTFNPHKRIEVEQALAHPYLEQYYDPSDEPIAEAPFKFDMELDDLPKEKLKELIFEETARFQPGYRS
Chain of Hydroxycarboxylic acid receptor 2 (Homo sapiens) (Q8TDS4 whole entry): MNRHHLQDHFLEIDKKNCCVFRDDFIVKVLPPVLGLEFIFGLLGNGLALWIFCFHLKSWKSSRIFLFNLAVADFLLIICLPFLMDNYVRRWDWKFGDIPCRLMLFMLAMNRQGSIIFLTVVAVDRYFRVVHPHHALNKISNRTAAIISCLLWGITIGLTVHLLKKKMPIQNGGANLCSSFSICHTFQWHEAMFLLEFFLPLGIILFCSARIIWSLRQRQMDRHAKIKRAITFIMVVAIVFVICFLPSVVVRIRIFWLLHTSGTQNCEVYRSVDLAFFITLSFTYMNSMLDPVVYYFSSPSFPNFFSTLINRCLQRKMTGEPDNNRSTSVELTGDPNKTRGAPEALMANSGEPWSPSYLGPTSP
Chain of Cannabinoid receptor 1 (Homo sapiens) (P21554 whole entry): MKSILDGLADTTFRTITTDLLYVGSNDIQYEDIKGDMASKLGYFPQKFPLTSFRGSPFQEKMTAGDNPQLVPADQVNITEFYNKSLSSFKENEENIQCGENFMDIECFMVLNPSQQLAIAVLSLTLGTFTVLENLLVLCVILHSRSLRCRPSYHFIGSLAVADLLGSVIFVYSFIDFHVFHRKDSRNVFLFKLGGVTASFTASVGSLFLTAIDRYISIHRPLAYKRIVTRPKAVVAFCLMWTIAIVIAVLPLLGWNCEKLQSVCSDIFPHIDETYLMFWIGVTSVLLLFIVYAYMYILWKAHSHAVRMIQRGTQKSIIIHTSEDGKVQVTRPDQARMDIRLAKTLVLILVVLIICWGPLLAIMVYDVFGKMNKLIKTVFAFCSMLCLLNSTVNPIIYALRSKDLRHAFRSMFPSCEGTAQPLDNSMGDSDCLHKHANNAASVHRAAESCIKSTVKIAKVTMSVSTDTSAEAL

Activity [1]: inactive
concentration at 24 h [2]: 500 ng/mL
Vd [3]: 1.3 L/kg
Activity [4]: inactive
Activity [5]: inactive
Activity [6]: inactive
Activity [7]: inactive
Activity [8]: inactive
Activity [9]: inactive
Activity (Homo sapiens): inactive
clearance [10]: 1.3 mL/min/kg
Activity [11]: inactive
Activity [12]: inactive
Cmax [13]: 200 ng/mL
Activity [14]: inactive
Activity [15]: inactive
Activity [16]: inactive
Activity [17]: inactive
inhibition (INH) (Cytochrome P450 2D6): Not Active
concentration at 12 h [18]: < 19 ng/mL
Vmax [19]: 4.7 pmol/min
Activity [20]: inactive
Activity [21]: inactive
Activity [22]: inactive
half-life [23]: 12.2 h
inhibition (INH) (Cytochrome P450 2C8): Not Active
Activity [24]: inactive
Vd [25]: 1.6 L/kg
Activity [26]: inactive
Activity [27]: inactive
AUClast/dose [28]: 60 µM·h
Activity [29]: inactive
Activity [30]: inactive
Activity [31]: inactive
Activity [32]: inactive
Vd [33]: 2.9 L/kg
Activity [34]: inactive
Structure (SMILES): CS(=O)(=O)c1ccc(Oc2cc(F)cc(C#N)c2)c2c1[C@H](O)[C@H](F)[C@@H]2F [BELZUTIFAN]
